Structures can show the parent of a compound that is named as a salt. Where two headings read alike, the source gives them in different places.
Test system: Plasmodium falciparum: 3D7 strain
Assay: P. falciparum 3D7 asexual blood stage assay (SYBR green readout)
Assay type: cell-based
Conditions: Plasmodium falciparum, P. falciparum 3D7 in human erythrocytes, 72 h incubation, SYBR green fluorescence
Method in brief: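 3D7-infected erythrocytes (5% haematocrit, 0.5% parasitaemia) were exposed 72 h at 37 °C under 1% O2/3% CO2 to a 20-point titration (50,000-15 nM final, 0.5% DMSO). Parasite DNA was read by SYBR green fluorescence after overnight lysis. Percent inhibition was set against mefloquine and DMSO, and EC50 came from a biphasic two-site fit.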

IC50 (Erythrocyte, read-out: IC50) [nM]	SMILES	IC50 (3D7, Erythrocyte, 72 h) [nM]
–	C[C@H]1C[C@@H](N2C(=N)N[C@](C)(c3cccc(-c4cncc(Cl)c4)c3Cl)CC2=O)CCO1 [Example 1, (6S)-6-[2-Chloro-3-(5-chloro-pyridin-3-yl)phenyl]-2-imino-6-methyl-3-[(2S,4S)-2-methyl-tetrahydropyran-4-yl]hexahydro-pyrimidin-4-one hydrochloride]	22
–	C[C@H]1C[C@@H](N2C(=N)N[C@](C)(c3cccc(-c4ccc(OC(F)(F)F)cc4Cl)c3Cl)CC2=O)CCO1 [Example 2, (6S)-6-{2-Chloro-3-[2-chloro-4-(trifluoromethoxy)phenyl]phenyl}-2-imino-6-methyl-3-[(2S,4S)-2-methyltetrahydropyran-4-yl]-hexahydropyrimidin-4-one hydrochloride]	78
90	C[C@H]1C[C@@H](N2C(=N)N[C@](C)(c3cccc(-c4cccc(N=S(C)(C)=O)c4)c3Cl)CC2=O)CCO1 [Example 3, (6S)-6-[2-Chloro-3-(3-{[(dimethyl)-(oxo)-26-sulfanylidene]amino}-phenyl)phenyl]-2-imino-6-methyl-3-[(2S,4S)-2-methyltetrahydro-pyran-4-yl]hexahydropyrimidin-4-one hydrochloride]	–
–	C[C@H]1C[C@@H](N2C(=N)N[C@](C)(c3cccc(-c4cccc(S(C)(=O)=O)c4)c3Cl)CC2=O)CCO1 [Example 4, (6S)-6-[2-Chloro-3-(3-methyl-sulfonylphenyl)phenyl]-2-imino-6-methyl-3-[(2S,4S)-2-methyl-tetrahydropyran-4-yl]hexahydro-pyrimidin-4-one hydrochloride]	17
–	C[C@H]1C[C@@H](N2C(=N)N[C@](C)(c3cccc(-c4cccc(P(C)(C)=O)c4)c3Cl)CC2=O)CCO1 [Example 5, (6S)-6-[2-Chloro-3-(3-dimethyl-phosphorylphenyl)phenyl]-2-imino-6-methyl-3-[(2S,4S)-2-methyl-tetrahydropyran-4-yl]hexahydro-pyrimidin-4-one hydrochloride]	101
–	C[C@H]1C[C@@H](N2C(=N)N[C@](C)(c3cccc(-c4ccc5ncn(CC(F)(F)F)c5c4)c3Cl)CC2=O)CCO1 [Example 6, (6S)-6-{2-Chloro-3-[3-(2,2,2-trifluoroethyl)benzimidazol-5-yl]-phenyl}-2-imino-6-methyl-3-[(2S,4S)-2-methyltetrahydropyran-4-yl]hexahydropyrimidin-4-one hydrochloride]	26
–	C[C@H]1C[C@@H](N2C(=N)N[C@](C)(c3cccc(-c4cccc(NS(C)(=O)=O)c4)c3Cl)CC2=O)CCC1(F)F [Example 13, N-[3-(2-Chloro-3-{(4S)-1-[(1S,3S)-4,4-difluoro-3-methylcyclohexyl]-2-imino-4-methyl-6-oxohexahydro-pyrimidin-4-yl}phenyl)phenyl]-methanesulfonamide trifluoroacetic acid salt]	10
–	C[C@H]1C[C@@H](N2C(=N)N[C@](C)(c3cccc(-c4ccc(NS(C)(=O)=O)cc4)c3Cl)CC2=O)CCC1(F)F [Example 14, N-[4-(2-Chloro-3-{(4S)-1-[(1S,3S)-4,4-difluoro-3-methylcyclohexyl]-2-imino-4-methyl-6-oxohexahydro-pyrimidin-4-yl}phenyl)phenyl]-methanesulfonamide trifluoroacetic acid salt]	97
–	C[C@H]1C[C@@H](N2C(=N)N[C@](C)(c3cccc(-c4ccc(Cl)cc4F)c3Cl)CC2=O)CCO1 [Example 15, (6S)-6-[2-Chloro-3-(4-chloro-2-fluorophenyl)phenyl]-2-imino-6-methyl-3-[(2S,4S)-2-methyl-tetrahydropyran-4-yl]hexahydro-pyrimidin-4-one trifluoroacetic acid salt]	142
–	C[C@H]1C[C@@H](N2C(=N)N[C@](C)(c3cccc(-c4ccc(Cl)cc4Cl)c3Cl)CC2=O)CCO1 [Example 16, (6S)-6-[2-Chloro-3-(2,4-dichloro-phenyl)phenyl]-2-imino-6-methyl-3-[(2S,4S)-2-methyltetrahydro-pyran-4-yl]hexahydropyrimidin-4-one trifluoroacetic acid salt]	66
–	C[C@H]1C[C@@H](N2C(=N)N[C@](C)(c3cccc(-c4cccc(Cl)c4)c3Cl)CC2=O)CCO1 [Example 17, (6S)-6-[2-Chloro-3-(3-chloro-phenyl)phenyl]-2-imino-6-methyl-3-[(2S,4S)-2-methyltetrahydro-pyran-4-yl]hexahydropyrimidin-4-one trifluoroacetic acid salt]	92
–	C[C@H]1C[C@@H](N2C(=N)N[C@](C)(c3cccc(-c4ccc(N=S(C)(C)=O)cc4F)c3Cl)CC2=O)CCC1(F)F [Example 18, (6S)-6-[2-Chloro-3-(4-{[(dimethyl)-(oxo)-λ^6-sulfanylidene]amino}-2-fluorophenyl)phenyl]-3-[(1S,3S)-4,4-difluoro-3-methylcyclohexyl]-2-imino-6-methylhexahydro-pyrimidin-4-one hydrochloride]	292
–	C[C@H]1C[C@@H](N2C(=N)N[C@](C)(c3cccc(-c4ccc(P(C)(C)=O)cc4F)c3Cl)CC2=O)CCC1(F)F [Example 19, (6S)-6-[2-Chloro-3-(4-dimethyl-phosphoryl-2-fluorophenyl)-phenyl]-3-[(1S,3S)-4,4-difluoro-3-methylcyclohexyl]-2-imino-6-methylhexahydropyrimidin-4-one hydrochloride]	386
–	C[C@H]1C[C@@H](N2C(=N)N[C@](C)(c3cccc(-c4cccc(N=S(C)(C)=O)c4)c3Cl)CC2=O)CCC1(F)F [Example 20, (6S)-6-[2-Chloro-3-(3-{[(dimethyl)-(oxo)-λ^6-sulfanylidene]amino}-phenyl)phenyl]-3-[(1S,3S)-4,4-difluoro-3-methylcyclohexyl]-2-imino-6-methylhexahydro-pyrimidin-4-one hydrochloride]	88
–	C[C@H]1C[C@@H](N2C(=N)N[C@](C)(c3cccc(-c4cccc(N5CCOCC5)c4)c3Cl)CC2=O)CCO1 [Example 29, (6S)-6-{2-Chloro-3-[3-(morpholin-4-yl)phenyl]phenyl}-2-imino-6-methyl-3-[(2S,4S)-2-methyl-tetrahydropyran-4-yl]hexahydro-pyrimidin-4-one trifluoroacetic acid salt]	65
–	C[C@H]1C[C@@H](N2C(=N)N[C@](C)(c3cccc(-c4cc5cccnc5n4C)c3Cl)CC2=O)CCO1 [Example 30, (6S)-6-[2-Chloro-3-(1-methyl-pyrrolo[2,3-b]pyridin-2-yl)phenyl]-2-imino-6-methyl-3-[(2S,4S)-2-methyltetrahydropyran-4-yl]-hexahydropyrimidin-4-one trifluoroacetic acid salt]	199
–	C[C@H]1C[C@@H](N2C(=N)N[C@](C)(c3cccc(-c4ccc(C5CC5)nc4)c3Cl)CC2=O)CCO1 [Example 31, (6S)-6-[2-Chloro-3-(6-cyclopropyl-pyridin-3-yl)phenyl]-2-imino-6-methyl-3-[(2S,4S)-2-methyl-tetrahydropyran-4-yl]hexahydro-pyrimidin-4-one trifluoroacetic acid salt]	180
–	Cc1cc(-c2cccc([C@]3(C)CC(=O)N([C@H]4CCO[C@@H](C)C4)C(=N)N3)c2Cl)on1 [Example 32, (6S)-6-[2-Chloro-3-(3-methyl-isoxazol-5-yl)phenyl]-2-imino-6-methyl-3-[(2S,4S)-2-methyl-tetrahydropyran-4-yl]hexahydro-pyrimidin-4-one trifluoroacetic acid salt]	50

Source: patent US20250134890A1, “ANTIMALARIAL HEXAHYDROPYRIMIDINE ANALOGUES” (UCB BIOPHARMA SRL, priority 2022, published 2025)
